For data set [1], the system named is AM (RA-treated hiPS-CMs, atrial-like). Description: High-throughput membrane potential recording (FluoVolt, FDSS/μCell) in AM. The format is cell-based, human. On the procedure:
(§1) Using a high-throughput screening system (FDSS/μCell), we assessed the drug toxicity of several experimental drugs on hiPS-derived atrial myocytes as well as control hiPS-derived cardiomyocytes. Membrane potential was used as one of the parameters during the assessment.
(§2) After purification, hiPS-derived cardiomyocytes were plated in 96-well plates for downstream drug response assessment using FluoVolt™ Membrane Potential Kit. […] The comparison of variance in the response of drug administration in CT and AM was represented by the percentage of changes based on their baseline values respectively.
(§3) FluoVolt™ Membrane Potential Kit (ThermoFisher […], F10488, Massachusetts, United States) was used to measure membrane potentials. The basic procedure was performed in accordance with the manufacturer’s instructions. […] MP were recorded at excitation and emission stages at wavelengths of 470 and 540 nm, respectively. […] Stock solutions of the test compounds were prepared in 100% DMSO, and serially diluted 1/40 into compound plates for testing (0.5% DMSO was the maximum concentration in all wells). The compounds were automatically pipetted from the compound plate, and 12 μL was loaded in the wells already containing the cells with 48 μL of media. Recording data were analyzed using Waveform Analysis of Cardiomyocyte Software (Ver.1.2.1J, Hamamatsu Photonics K.K.). Data values for a well were averaged from waveforms that arose during 30 s. The beat rate (BR; beats per minute), waveform amplitude (AMP), and duration at 30, 50, and 80% of decay (PWD30, PWD 50, and PWD 80, respectively) were used as evaluation parameters. PWDs were corrected using the Fridericia formula. PWD30-80 was calculated as the difference between PWD80 and PWD30. Each parameter was calculated as percentage change (%) from the value before test compound addition.

The subject of a further data set is human atrial myocytes. Details: method as in Lagrutta et al., 2006. The following applies: ref Lagrutta et al., 2006; cited from earlier work.
Data set [2] relates to cardiac Na+ channel (Nav1.5). The following applies: ref Kramer et al., (2013), Harmer et al., (2011); read-out: IC50 cardiac Nav1.5 current; cited from earlier work.
The next data set relates to Cav1.2 current. Details: method as in Kramer et al., (2013), Harmer et al., (2011). The note with it: ref Kramer et al., (2013), Harmer et al., (2011); cited from earlier work.
Data set [3] relates to CT (control hiPS-CMs without RA, ventricular-like). Description: High-throughput membrane potential recording (FluoVolt, FDSS/μCell) in CT. It is filed as cell-based, human. The protocol:
as §1, §2, §3

A further data set has as its system atrial refractory period. The arrangement: method as in Knobloch et al., 2002. The note with it: ref Knobloch et al., 2002; cited from earlier work.
The test system of data set [4] is ventricular function and porcine ventricular myocytes. Details: method as in Knobloch et al., 2002. The note with it: ref Knobloch et al., 2002; cited from earlier work.
The mark [5] stands for this setting: % change from value before compound addition, 10 min after addition (Bay K 8644: 3 min).
Setting [6] is: concentration range as stated in the source.

The text below walks through data of PMC8369502, “High-Throughput Drug Screening System Based on Human Induced Pluripotent Stem Cell-Derived Atrial Myocytes ∼ A Novel Platform to Detect Cardiac Toxicity for Atrial Arrhythmias” (Frontiers in Pharmacology, 2021).

Molecules are shown by their SMILES. Where “and” joins values, the source holds several entries; their conditions need not be identical. Identical values can stand only once. Entries after “also recorded” stand apart in the source; their conditions may differ.

Turning to `CC(C)[C@@H]1CC[C@@H](C)C[C@@H]1P(=O)(c1ccccc1)c1ccccc1` [DPO-1], in data set [1], the “PWD30cF (in words)” value was “dose-dependent increases; also recorded: prolongation” and the “PWD50cF (in words)” value is listed as “dose-dependent increases; also recorded: prolongation”. Further, the PWD30cF entry in data set [1] (setting [5]) is on record as “↑”. Besides, in the data set on human atrial myocytes, the “action potentials in human atrial myocytes” value was “prolongation of action potentials”.

On to `O=C1NC(=O)C(c2ccccc2)(c2ccccc2)N1` [Phenytoin], for which the IC50 in data set [2] was 72.4 µM and 121 µM; in the data set with Cav1.2 current, 21.9 µM. The “incidence of arrhythmia-like waveforms: arrest” value (shortened to “incidence”) worked out at 50% in data set [1] (10 μM); 67% in data set [1] (30 μM); 100% in data set [1] (100 μM); 83% in data set [3] (30 μM); 100% in data set [3] (100 μM). Besides, the “Rising Slope” value in data set [1] (setting [5]) and in data set [3] (setting [5]) was “↓” each time. Besides, the “rising slope of membrane potential (in words)” value in data set [1] (setting [6]) and in data set [3] (setting [6]) was “dose-dependent decrease” each time. Besides, the “concentration at which cessation of beating was elicited” value in data set [3] is listed as “higher than 30 μM”. Also, the “membrane potential duration (in words)” value in data set [3] was “slight shortening”. For the same compound, in data set [3] (setting [5]), the “Falling Slope” value is reported as “↑”. The “falling slope of membrane potential (in words)” value in data set [3] (setting [6]) is given as “increase”.

With `O=C(NCc1ccccc1-c1ccccc1C(=O)NCCc1ccccn1)OCc1ccccc1` [S9947], the atrial refractory period entry in the data set on atrial refractory period is given as “prolonged”. Also, in data set [1], the “PWD30cF (in words)” value is on record as “prolongation”, the “PWD50cF (in words)” value is “prolongation” and the “membrane potential duration (in words)” value is recorded as “dose-dependent increase”. Besides, the “incidence” value in data set [1] (10 μM) came to 100%. For the same compound, the “cessation of beating / arrest (cases)” value in data set [1] (10 μM, count of wells) is “All”. Further, in data set [1] (setting [5]), the PWD30cF result is given as “↑” and the PWD80cF result is given as “↑”. In data set [4], the “ventricular function and porcine ventricular myocytes” value is reported as “did not affect”. Moreover, the “amplitude of membrane potential (in words)” value in data set [3] is reported as “decrease”. For the same compound, in data set [3] (10 μM), the “incidence” value came out at 50%. The “cessation of beating / arrest (cases)” value in data set [3] (10 μM, count of cases) is recorded as “half”. For the same compound, in data set [3] (setting [5]), the “Falling Slope” value is given as “↑”, the PWD30cF result is reported as “↓”, the PWD80cF result is given as “↓” and the “Rising Slope” value is “↓”.

In general, IC50 refers to the concentration that inhibits the measured activity by half.
